These are literature values, as cited in US20110251239A1, “COMBINATION THERAPY FOR THE TREATMENT OF DEMENTIA” (EISAI INC., priority 2010, published 2011).

For data set [1], the system named is CYP450 enzymes (CYP1A2, -2A6, -2C9, -2D6, -2E1, -3A4).
The subject of data set [2] is cytochrome P450 isozymes CYP1A2, CYP2C9, CYP2E1 and CYP3A4/5.

`CC12CC3CC(C)(C1)CC(N)(C3)C2` [memantine, 1-amino-3,5-dimethyl adamantane]: in data set [1], the “inhibition of CYP450 enzymes” value is reported as “minimal inhibition”. In addition, the “induction of cytochrome P450 isozymes” value in data set [2] is “does not induce”.
